Measured values from EP1900728A1 (Genecare Research Institute Co., Ltd, priority 2005, dated 2006).

target: T1, IκBα ubiquitinating enzyme (SCF complex: ROC1, Cullin1, Skp1, His-TrCP1; with E1, UbcH5b) (Homo sapiens, UniProt P62877+P63208+Q13616+Q9Y297); assay: Measurement of ubiquitinating enzyme activity (IκBα ubiquitination, time-resolved fluorescence with Eu(K)-labeled ubiquitin and XL665-labeled anti-GST antibody); type: biochemical; conditions: enzyme activity inhibition test, method (1), Table 5; read-out: EVALUATION
T1 construct: His (polyhistidine); made in house; host or cells: insect cells (baculovirus) for the SCF complex and His-E1; E. coli for His-UBCH5b
Experimental: Method 1: Measurement of ubiquitinating enzyme activity
A recombinant vector His-UBCH5b containing a polyhistidine tag (His) and UBCH5b was prepared. E. coli was transformed with the vector, the protein was expressed, and affinity purification was carried out using Ni-NTA agarose (Qiagen). Four types of recombinant baculoviruses (ROC1, Cullin1, Skp1, and His-TrCP1) were prepared for the SCF complex protein, insect cells were infected in quadruplicate for expression, and affinity purification was carried out using Ni-NTA agarose. Recombinant baculoviruses His-IKKβ, His-E1 were prepared. The insect cells were infected with each of those for expression, and affinity purification was carried out using Ni-NTA agarose. A recombinant vector GST-IκBα was prepared by fusing glutathione-S-transferase tag (GST) and IκBα, E. coli was transformed with the vector for the protein expression, and affinity purification was carried out using glutathione sepharose (Amersham Biosciences). Genetic transformants were prepared by PCR amplification followed by recombination, all of which were based on published human-derived sequences.
Phosphorylation reaction of IκBα was performed by incubating the above-mentioned assay buffer (50 mM Tris-HCl (pH7.4), 2 mM ATP, 5 mM MgCl2, 0.5 mM DTT, 0.1% BSA) containing IκBα and IKKβ at room temperature for 1 hour. Ubiquitination reactions were carried out as follows. Compound samples at various concentrations, ubiquitin, Eu (K)-labeled ubiquitin, E1, UbcH5b, and SCF complex were added to phosphorylated IκBα, and then this was incubated at room temperature for 30 minutes. The reaction was terminated by adding EDTA, the above-mentioned revelation buffer (100 mM phosphate buffer (pH7.0), 0.5 M KF, 0.1% BSA) containing XL665-labeled anti-GST antibody was added and this was left to stand at room temperature for 2 hours. Measurements were made using ARVO-HTS (Perkin Elmer). The ratio of fluorescence intensities at 620 nm and 665 nm (Em 665 nm/Em 620 nm x 10,000) with excitation light at 337 nm was measured.
The ubiquitination level without the addition of a compound sample was used as the control value, and the level in the absence of SCF complex was used as the blank value for the assays. Inhibitory activities of the compounds were indicated as % inhibition = 100 - (value with a compound sample added - blank value) / (control value - blank value) x 100. IC50 was indicated as the concentration of the compound showing 50% inhibition. Eu (K)-labeled ubiquitin, XL665-labeled anti-GST antibody, and XL665-labeled anti-His antibody were purchased from CIS bio international. Costar solid black plates (96 wells) were used for the assays.

T1 sequence (Q9Y297 whole entry): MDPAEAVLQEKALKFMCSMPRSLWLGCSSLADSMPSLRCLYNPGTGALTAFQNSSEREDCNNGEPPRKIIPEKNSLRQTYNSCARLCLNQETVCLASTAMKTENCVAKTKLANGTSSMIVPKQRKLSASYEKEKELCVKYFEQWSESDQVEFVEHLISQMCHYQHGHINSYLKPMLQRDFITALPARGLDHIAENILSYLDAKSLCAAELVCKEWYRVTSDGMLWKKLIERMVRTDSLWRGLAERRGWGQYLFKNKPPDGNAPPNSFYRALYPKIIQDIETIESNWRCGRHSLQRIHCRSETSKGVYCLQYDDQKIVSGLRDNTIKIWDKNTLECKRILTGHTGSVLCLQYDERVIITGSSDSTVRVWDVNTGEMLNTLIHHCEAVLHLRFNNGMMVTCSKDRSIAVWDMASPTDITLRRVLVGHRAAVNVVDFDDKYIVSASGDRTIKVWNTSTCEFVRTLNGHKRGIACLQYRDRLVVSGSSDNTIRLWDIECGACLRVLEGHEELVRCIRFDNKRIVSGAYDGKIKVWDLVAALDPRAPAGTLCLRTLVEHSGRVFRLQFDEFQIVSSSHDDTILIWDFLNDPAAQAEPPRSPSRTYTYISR
T1 sequence (Q13616 whole entry): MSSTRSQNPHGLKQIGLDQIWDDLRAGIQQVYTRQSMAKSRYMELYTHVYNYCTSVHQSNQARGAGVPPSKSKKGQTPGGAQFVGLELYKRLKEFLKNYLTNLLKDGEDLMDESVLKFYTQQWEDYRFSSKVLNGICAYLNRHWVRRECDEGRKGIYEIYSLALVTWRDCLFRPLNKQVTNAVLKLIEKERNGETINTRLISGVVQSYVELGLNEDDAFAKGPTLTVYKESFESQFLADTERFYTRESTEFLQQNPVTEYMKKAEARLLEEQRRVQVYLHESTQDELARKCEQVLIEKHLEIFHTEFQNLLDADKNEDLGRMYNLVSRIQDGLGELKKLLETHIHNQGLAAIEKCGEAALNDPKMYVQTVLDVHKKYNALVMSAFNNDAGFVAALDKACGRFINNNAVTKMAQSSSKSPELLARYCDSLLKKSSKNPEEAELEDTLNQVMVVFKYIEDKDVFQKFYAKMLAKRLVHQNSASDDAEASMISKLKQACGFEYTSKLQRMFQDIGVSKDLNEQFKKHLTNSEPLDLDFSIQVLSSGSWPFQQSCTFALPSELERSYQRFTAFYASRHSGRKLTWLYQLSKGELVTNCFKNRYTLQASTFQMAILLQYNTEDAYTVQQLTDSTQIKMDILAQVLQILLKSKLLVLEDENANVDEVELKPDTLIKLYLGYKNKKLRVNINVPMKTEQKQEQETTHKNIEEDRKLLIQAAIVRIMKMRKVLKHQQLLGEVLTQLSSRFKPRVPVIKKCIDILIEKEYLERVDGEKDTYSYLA
T1 sequence (P63208 whole entry): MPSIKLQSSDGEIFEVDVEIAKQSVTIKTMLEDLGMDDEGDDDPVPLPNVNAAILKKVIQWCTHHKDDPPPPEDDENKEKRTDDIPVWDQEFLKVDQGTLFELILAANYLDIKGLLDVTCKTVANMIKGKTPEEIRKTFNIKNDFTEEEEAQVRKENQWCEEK
T1 sequence (P62877 whole entry): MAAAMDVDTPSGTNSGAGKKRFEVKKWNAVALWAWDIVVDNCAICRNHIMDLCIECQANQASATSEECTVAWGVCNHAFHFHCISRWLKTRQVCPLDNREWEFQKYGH

Row | Compound | IC50
1 | CC1=NN(c2cccc(C(=O)O)c2)C(=O)/C1=C\c1ccc2c(c1)OCCO2 [Compound 402] | 10 to 20 µM
2 | O=C(O)c1ccc(N2N=C(Cc3ccccc3)/C(=C/c3nccs3)C2=O)cc1 [Compound 270] | < 40 µM
3 | CC1=NN(c2ccc(S(N)(=O)=O)cc2)C(=O)C1=Cc1cccc(C(=O)O)c1 [Compound 222] | 10 to 20 µM
4 | CCCCC1=NN(c2ccccc2)C(=O)/C1=C\c1ccc2c(c1)OCCO2 [Compound 98] | 10 to 20 µM
5 | CC1=NN(c2cccc(S(N)(=O)=O)c2)C(=O)/C1=C\c1ccc(N2CCC(CO)CC2)cc1 [Compound 173] | < 40 µM
6 | CC1=NN(c2cccc(S(N)(=O)=O)c2)C(=O)/C1=C\c1cccc2cc[nH]c12 [Compound 140] | < 10 µM
7 | CCCCC1=NN(c2ccccc2)C(=O)C1=Cc1ccc(N2CCN(C)CC2)cc1 [Compound 106] | < 40 µM
8 | CC(C)(C)OC(=O)N1CCN(C(=O)C2=NN(c3ccccc3)C(=O)C2=Cc2ccc(N3CCCC3)cc2)CC1 [Compound 89] | < 40 µM
9 | CC1=NN(c2cccc(S(N)(=O)=O)c2)C(=O)/C1=C\c1ccc(N2CCCC2CO)cc1 (stereo not shown) [Compound 174] | < 40 µM
10 | CC1=NN(c2cccc(C(=O)O)c2)C(=O)/C1=C\c1ccc2occc2c1 [Compound 368] | < 10 µM
11 | CC1=NN(c2cccc(C(=O)O)c2)C(=O)/C1=C\c1ccc(S(=O)(=O)O)o1 [Compound 520] | 10 to 20 µM
12 | O=C1/C(=C\c2ccc3c(c2)OCCO3)C(c2cccnc2)=NN1c1ccccc1 [Compound 66] | < 40 µM
13 | CC1=NN(c2ccccc2)C(=O)/C1=C\c1ccc(OCCCN(C)C)cc1 [Compound 217] | < 40 µM
14 | CC1=NN(c2ccc(C(=O)N3CCCC3CO)cc2)C(=O)/C1=C\c1ccc2[nH]ccc2c1 (stereo not shown) [Compound 362] | < 10 µM
15 | CC1=NN(c2cccc(C(=O)O)c2)C(=O)/C1=C\c1cccc2cc[nH]c12 [Compound 356] | < 10 µM
16 | COc1cc(/C=C2\C(=O)N(c3cccc(S(N)(=O)=O)c3)N=C2C)ccc1OCC1CC1 [Compound 160] | < 40 µM
17 | O=C1/C(=C\c2ccc3c(c2)OCCO3)C(c2ccncc2)=NN1c1ccccc1 [Compound 46] | < 40 µM
18 | CC1=NN(c2cccc(C(=O)O)c2)C(=O)C1=Cc1cc2ccccc2n1C [Compound 359] | < 10 µM
19 | CC1=NN(c2cccc(C(=O)O)c2)C(=O)/C1=C\c1ccc2[nH]ccc2c1 [Compound 364] | < 10 µM
20 | CC1=NN(c2cccc(S(N)(=O)=O)c2)C(=O)C1=Cc1cccc2[nH]ccc12 [Compound 137] | 10 to 20 µM
21 | COc1cc(/C=C2\C(=O)N(c3ccc(S(N)(=O)=O)cc3)N=C2C)ccc1OCC1CC1 [Compound 159] | 10 to 20 µM
22 | COc1cc(/C=C2\C(=O)N(c3cccc(S(N)(=O)=O)c3)N=C2C)ccc1OCc1c(C)noc1C [Compound 153] | < 40 µM

Row | Compound | IC50
23 | CC1=NN(c2ccc(S(=O)(=O)N3CCC(O)CC3)cc2)C(=O)/C1=C\c1ccc2c(c1)OCO2 [Compound 162] | < 40 µM
24 | CC1=NN(c2ccccc2)C(=O)/C1=C\c1ccc(OCC(=O)N(C)C)cc1 [Compound 206] | < 40 µM
25 | COc1ccc(C2=NN(c3ccc(C(=O)O)cc3)C(=O)C2=Cc2ccc(-n3cccn3)cc2)cc1OC [Compound 342] | < 40 µM
26 | CC1=NN(c2cccc(C(=O)O)c2)C(=O)/C1=C\c1ccc(N2CCC(CO)CC2)cc1 [Compound 421] | < 10 µM
27 | CC1=NN(c2ccc(S(N)(=O)=O)cc2)C(=O)C1=Cc1ccc(N2CCCC2CO)cc1 (stereo not shown) [Compound 172] | < 40 µM
28 | CC1=NN(c2ccc(S(N)(=O)=O)cc2)C(=O)/C1=C\c1ccc(-n2cncn2)cc1 [Compound 109] | < 40 µM
29 | CC1=NN(c2ccc(C(=O)O)cc2)C(=O)C1=Cc1ccc(N2CCNCC2)cc1 [Compound 451] | 10 to 20 µM
30 | CC1=NN(c2cccc(S(N)(=O)=O)c2)C(=O)/C1=C\c1ccc2occc2c1 [Compound 143] | < 40 µM
31 | O=C(O)c1ccc(N2N=C(Cc3ccccc3)/C(=C/c3ccc(-n4cncn4)cc3)C2=O)cc1 [Compound 276] | < 40 µM
32 | O=C(O)c1ccc(N2N=C(c3ccccn3)/C(=C/c3ccc(N4CCC(O)CC4)s3)C2=O)cc1 [Compound 293] | < 40 µM
33 | CC1=NN(c2ccc(C(=O)NCC(C)O)cc2)C(=O)C1=Cc1ccc2c(c1)OCCO2 (stereo not shown) [Compound 398] | < 40 µM
34 | COc1ccc(C2=NN(c3ccccc3)C(=O)C2=Cc2ccc3c(c2)OCCO3)cc1 [Compound 93] | < 40 µM
35 | O=C(O)c1ccc(N2N=C(Cc3ccccc3)/C(=C/c3ccc4ccccc4c3)C2=O)cc1 [Compound 264] | 10 to 20 µM
36 | CC1=NN(c2ccc(C(=O)O)cc2)C(=O)C1=Cc1ccc(N2CCC(N3CCCC3)CC2)cc1 [Compound 450] | < 40 µM
37 | CN1CCN(c2ccc(/C=C3\C(=O)N(c4ccccc4)N=C3Cc3ccccc3)cc2)CC1 [Compound 100] | < 40 µM
38 | COc1ccc(C2=NN(c3ccccc3)C(=O)/C2=C\c2ccc3ccccc3c2)cc1OC [Compound 97] | 10 to 20 µM
39 | CC1=NN(c2ccc(C(=O)N3CCC(C(=O)O)CC3)cc2)C(=O)/C1=C\c1ccc2[nH]ccc2c1 [Compound 352] | < 10 µM
40 | CC1=NN(c2ccc(C(=O)O)cc2)C(=O)/C1=C\c1ccsc1 [Compound 511] | < 40 µM
41 | O=C(O)c1ccc(N2N=C(c3ccoc3)C(=Cc3ccc(N4CCC(O)CC4)s3)C2=O)cc1 [Compound 251] | < 40 µM
42 | CC1=NN(c2ccc(S(N)(=O)=O)cc2)C(=O)C1=Cc1cc2ccccc2n1C [Compound 142] | < 40 µM
43 | CC1=NN(c2ccc(S(N)(=O)=O)cc2)C(=O)/C1=C\c1ccc2occc2c1 [Compound 144] | 10 to 20 µM
44 | CC1=NN(c2ccc(C(=O)N3CCN(c4ccccc4)CC3)cc2)C(=O)C1=Cc1ccc2[nH]ccc2c1 [Compound 353] | < 10 µM

Row | Compound | IC50
45 | CC1=NN(c2ccc(C(=O)O)cc2)C(=O)C1=Cc1c[nH]c2ccc(Cl)cc12 [Compound 378] | < 10 µM
46 | COCC1=NN(c2ccc(C(=O)O)cc2)C(=O)/C1=C\c1ccc(N2CCN(C)CC2)cc1 [Compound 241] | < 40 µM
47 | CC1=NN(c2ccccc2)C(=O)/C1=C\c1ccc(N2CCN(C)CC2)cc1 [Compound 99] | 10 to 20 µM
48 | Cn1cc(-c2ccc(/C=C3\C(=O)N(c4cccc(C(=O)O)c4)N=C3Cc3ccccc3)o2)cn1 [Compound 510] | < 40 µM
49 | O=C1/C(=C\c2ccc3ccccc3c2)C(Cc2ccccc2)=NN1c1ccccc1 [Compound 23] | < 40 µM
50 | CC1=NN(c2ccc(C(=O)NCC(C)O)cc2)C(=O)C1=Cc1ccc2c(c1)OCCO2 (stereo not shown) [Compound 400] | < 40 µM
51 | COC(=O)c1ccc(COc2ccc(/C=C3\C(=O)N(c4ccccc4)N=C3C)cc2OC)cc1 [Compound 122] | < 40 µM
52 | CC1=NN(c2cccc(C(=O)O)c2)C(=O)/C1=C\c1ccc2c(ccn2C)c1 [Compound 493] | < 10 µM
53 | CC1=NN(c2ccc(C(=O)O)cc2)C(=O)/C1=C\c1cccc2nccnc12 [Compound 331] | 10 to 20 µM
54 | COCC1=NN(c2cccc(C(=O)O)c2)C(=O)/C1=C\c1ccc(N2CCCC2)cc1 [Compound 471] | 10 to 20 µM
55 | O=C1/C(=C\c2ccc(-n3cccn3)cc2)C(c2cccnc2)=NN1c1ccccc1 [Compound 67] | < 40 µM
56 | CC1=NN(c2ccc(C(=O)NCc3ccc4c(c3)OCO4)cc2)C(=O)/C1=C\c1ccc2c(c1)OCCO2 [Compound 397] | 10 to 20 µM
57 | NS(=O)(=O)c1ccc(N2N=C(C3CC3)/C(=C/c3ccc(-n4cncn4)cc3)C2=O)cc1 [Compound 111] | < 40 µM
58 | CC1=NN(c2ccc(C(=O)O)cc2)C(=O)/C1=C\c1cc2ccccc2n1C [Compound 360] | < 10 µM
59 | CC1=NN(c2ccc(S(N)(=O)=O)cc2)C(=O)/C1=C\c1ccc(OS(=O)(=O)c2ccc(C(C)(C)C)cc2)cc1 [Compound 221] | 10 to 20 µM
60 | COC(=O)N1CCN(c2ccc(C=C3C(=O)N(c4ccc(C(=O)O)cc4)N=C3c3ccncc3)cc2)CC1 [Compound 344] | < 40 µM
61 | O=C1/C(=C\c2ccc(CO)o2)C(c2cccnc2)=NN1c1ccccc1 [Compound 64] | < 40 µM
62 | COc1cc(/C=C2\C(=O)N(c3cccc(C(=O)O)c3)N=C2C)ccc1OCc1c(C)noc1C [Compound 394] | 10 to 20 µM
63 | COc1cc(/C=C2/C(=O)N(c3cccc(N)c3)N=C2C)ccc1O [Compound 198] | < 40 µM
64 | COc1cc(/C=C2\C(=O)N(c3ccc(C(=O)O)cc3)N=C2C)ccc1OCC1CCCCC1 [Compound 406] | 10 to 20 µM
